According to patent US7919076B2, “PH-sensitive polymeric conjugates of an anthracycline cancerostatic drug for targeted therapy” (Zentiva, k.s., priority 2001, dated 2011):

Test system: T-cellular lymphoma (EL4)
Assay: in vivo anti-tumor activity, s.c. T-cellular lymphoma EL4 in C57BL/10 mice
Parameters: species or system mouse
Procedure: Mice of inbred strain C57BL/10 were subcutaneously transplanted with T-cellular lymphoma (EL4). The tumor cells were injected in the lower half of the back of experimental animals in the amount of 1×10^5 cells/mouse. The cell transplantation day was marked day 0. Polymeric conjugates with hydrolytically released doxorubicin were then administered intraperitoneally either on day 1, 3, 5, 7 and 9 (protective regimen), on day 10, 12, 14, 16 and 18 or on day 12, 14, 16, 18 and 20 (therapeutic regimen). The daily dose of doxorubicin was 50 μg/mouse.

## COc1cccc2c1C(=O)c1c(O)c3c(c(O)c1C2=O)C[C@@](O)(C(=O)CO)C[C@@H]3O[C@H]1C[C@H](N)[C@H](O)[C@H](C)O1 [doxorubicin]
EL4, i.p., doxorubicin 50 μg/mouse daily dose
  anti-tumor effect (tumor growth, survival): very limited effect
EL4, control group 35 days
  maximum survival period of the experimental animals: 40 days
